The nature of data set [1]: Comparison of serdexmethylphenidate to other prescription treatments for sleep disorders (key attributes). The source says: The data presented in the preceding examples supports the conclusion that serdexmethylphenidate has several advantages over other treatments for IH.
Most importantly, serdexmethylphenidate improves IH, EDS, SI, and BF symptoms; none of the other treatment options in Table 6 improve symptoms in all of the instant sleep disorder. […] Additionally, serdexmethylphenidate has advantageous dosing amounts and dosing schedules compared to both XYWAV® and LUMRYZ®. For example, XYWAV® requires two nighttime dosages, whereas serdexmethylphenidate reduces sleep disorder symptoms with only a single dose before bedtime.

Data set [2] in a line: Comparator study with Ritalin: plasma d-MPH PK. The class given is in vivo, human. To be noted: for CL/F - Geo Mean: plasma d-MPH. How it is done:
Ritalin is a racemate of d-methylphenidate approved for treating narcolepsy, which is a similar disorder of hypersomnolence characterized by significant excessive daytime sleepiness. The PK profiles of patient administered 80 mg or 200 mg of serdexmethylphenidate are compared to the PK profiles of patients administered 40 mg of Ritalin twice, 5 hours apart, and a single dose of 80 mg of Ritalin.

In a further data set the test system is adults with IH. Put plainly: Phase 2 IH study: Idiopathic Hypersomnia Severity Scale (IHSS). To be noted: for IHSS, Mean, Titration Baseline: before treatment; for IHSS, Mean, Randomization Baseline (Week 5): end of open-label titration; for IHSS, Difference in LS Mean (SE): SDX vs placebo, ANCOVA. The class given is in vivo, human. The source says: “Idiopathic Hypersomnia Severity Scale” or “IHSS,” as it relates to the present technology, means a self-administered 14 question survey. Respondents are asked to rate on a 4-point scale (0-3) the severity of IH symptoms such as prolonged and/or unrefreshing daytime and nighttime sleep; impaired daytime alertness, and sleep inertia. The total possible score is 50 if all questions are rated at the maximum score. IHSS scores are generally interpreted as follows: 0-12, mild; 13-25, moderate; 26-38, severe; and 39-50, very severe.
A double-blind, placebo-controlled, randomized-withdrawal, dose-optimizing, multi-center study investigated the safety and efficacy of serdexmethylphenidate for the treatment of IH. Twenty-two (22) patients completed a 7-week study consisting of two parts. Part 1 of the trial comprised a five-week open-label titration phase during which patients were optimized to one of four total daily doses of serdexmethylphenidate (80, 160, 240, or 320 mg/day). About half the study participants were assigned to take the total daily dose of study drug once per day just before going to bed (QD dosing cohort). The other half was instructed to take half the daily dose of study drug in the morning after awakening and the second half of the daily dose just before going to bed (BID dosing cohort). The titration procedure during the 5-week open label period was conducted as follows: patient treatment was initiated with the lowest total daily dose (80 mg/day) regardless of dosing regimen. At subsequent clinical visits scheduled at intervals of about 1 week each, the dose of the patient was either decreased (except after the first week), maintained, or increased based on tolerability, clinical effect, and adverse events. Depending on the severities of any dose-limiting effects as determined by the clinician, the dose was decreased if possible or the patient was discontinued from the study. If the dose was tolerated by the patient and the clinician determined an opportunity to improve effectiveness, the dose of study drug was increased if possible. Otherwise, the dose was maintained in the subsequent week.
Part 2 of the trial comprised a two-week randomized (2:1), double-blind, withdrawal phase, during which two-thirds of the trial participants continued to receive their optimized dose while the remaining one-third received placebo. During the withdrawal phase, patients continued the same dosing regimen (QD or BID) they were assigned to at treatment initiation and adhered to during the titration phase.
Secondary efficacy endpoints included Excessive Daytime Sleepiness (EDS) assessed with the Epworth Sleepiness Scale (ESS). Additional secondary endpoints were based on the Idiopathic Hypersomnia Severity Scale (IHSS), daily rating of difficulty of waking up in the morning assessed with the Sleep Inertia Visual Analog Scale (SI-VAS), and rating of brain fog symptoms measured with an exploratory Brain Fog Scale (BFS). Scores on the ESS, IHSS, and BFS were based on a 1-week look-back period.
The minimally clinically important difference for the IHSS is 4 points. The horizontal dashed line at an IHSS score of 22 points marks the boundary between “normal” individuals and individuals that may have a sleep disorder with more severe symptoms of idiopathic hypersomnia. Scores of 22 and less are generally considered “healthy” or “normal” whereas scores greater than 22 indicate symptoms of idiopathic hypersomnia.

[3] abbreviates: single 80 mg and single 200 mg doses.

`COC(=O)[C@H](c1ccccc1)[C@H]1CCCCN1C(=O)OC[n+]1cccc(C(=O)N[C@@H](CO)C(=O)O)c1` [SDX, serdexmethylphenidate]: in data set [1], the “Abnormal Rapid Eye Movement (REM) sleep cycles” value is given as “does not result in abnormal Rapid Eye Movement (REM) sleep cycles”; the “IH, EDS, SI, and BF symptoms” value was “improves”. Also, in data set [2] (SDX 80 mg (N = 14)), the “CL/F - Geo Mean” value is “(283) L/h”. Moreover, in data set [2] (SDX 200 mg (N = 14)), the “CL/F - Geo Mean” value was “(304) L/h”. Moreover, in data set [2] (setting [3]), the “AUC0-24 and AUCinf compared to Ritalin” value is reported as “higher”; the “Cmax concentrations compared to Ritalin” value was “lower”; the “Tmax compared to Ritalin” value was “longer”. In the data set with adults with IH (BID Cohort, SDX (N = 17)), the “IHSS, Mean Change from Randomization Baseline to Week 7” value was 0.3; the “IHSS, Mean, End of Withdrawal Period (Week 7)” value turned out to be 21.6; the “IHSS, Mean, Titration Baseline” value was 34.3; the “IHSS, Mean, Randomization Baseline (Week 5)” value is reported as 21.3. Further, in the data set on adults with IH (BID Cohort, p-value 0.104), the “IHSS, Difference in LS Mean (SE)” value is on record as −9.0 (3.48). For the same compound, in the data set with adults with IH (QD Cohort, SDX (N = 15)), the “IHSS, Mean Change from Randomization Baseline to Week 7” value stood at 0.7; the “IHSS, Mean, End of Withdrawal Period (Week 7)” value was found to be 19.3; the “IHSS, Mean, Titration Baseline” value is on record as 35.4; the “IHSS, Mean, Randomization Baseline (Week 5)” value came out at 18.6. Moreover, the “IHSS, Difference in LS Mean (SE)” value in the data set with adults with IH (QD Cohort, p-value 0.208) is 0.9 (3.73). Further, the “Decrease in mean IHSS score” value in the data set on adults with IH (all patients, 5-week titration period) is listed as 12-17 points. Also, in the data set with adults with IH (patients continuing treatment during the 2-week withdrawal period), the “Change in mean IHSS score” value was “no more than 0.7 points”.

(Values after patent US20250375436A1, “SERDEXMETHYLPHENIDATE FOR TREATMENT OF IDIOPATHIC HYPERSOMNIA” (ZEVRA THERAPEUTICS, INC., priority 2024, published 2025).)
